Measured values taken from patent US20220361544A1, “Compositions Containing Brazzein” (The Coca-Cola Company, priority 2019, published 2022).
Where two headings read alike, the source gives them in different places.

Experiments:
[1] = Sensory evaluation of 472 ppm RebM80 + Brazzein in citric base; assay type: in vivo, human; conditions: Brazzein 1-15 ppm in 472 ppm of RebM80
Excerpt: Example 6: Brazzein+Reb M (Taste Modifying Composition)

[2] = cited from earlier work
[3] = cited from earlier work; remark: listed apart in the source
[4] = cited from earlier work; remark: listed apart in the source
[5] = Sensory evaluation of 400 ppm A95 + Brazzein in citric base; assay type: in vivo, human; conditions: Brazzein 5 ppm to 20 ppm in 400 ppm of A95
Excerpt: Example 7: Brazzein+Reb A95 (Taste Modifying Composition)
“A95” refers to a steviol glycoside blend comprising primarily reb D and reb M. Methods of obtaining A95 are provided in WO 2017/059414, incorporated herein by reference.

Brazzein: small, sweet-tasting protein from Pentadiplandra brazzeana Baillon; 53-amino acid minor form, SEQ ID NO: 1 (DKCKKVYENYPVSKCQLANQCNYDCKLDKHARSGECFYDEKRNLQCICDYCEY; listed as Pentadiplandra brazzeana)
Effect of Brazzein on taste property of 472 ppm RebM80 [1]: improves the taste property in 472 ppm of RebM80 such as, sour, less sweet, cover the bitterness and lingering. More mouthfeel, richness and fullbody. | Taste similarity to sucrose ([2]; compared with thaumatin): more similar to sucrose than that of thaumatin | Sweetness of minor form relative to major form ([2]; minor form (des-pGlu1-brazzein) vs major form (pGlu-brazzein)): nearly twice the sweetness of the major form | Solubility [3]: > 50 g/L | Water solubility [3]: > 50 mg/mL | Sweet taste after incubation ([4]; 80° C. for 4.5 h in the pH range of 2.5-8): remains | Sweet taste after incubation ([4]; 98° C. for 2 h): remains | Effect of Brazzein on taste of 400 ppm A95 [5]: can improve the mouthfeel, block bitterness and lingering in 400 ppm of A95
